Like-named read-outs stand apart in the source and are kept apart here.
Key:
[1] = target: T1, CYP77A4 (Arabidopsis thaliana, UniProt Q9LZ31); format: biochemical; settings: 4.5 pmoles CYP77A4, 5 min, calculated with Enzyme Kinetics (Sigma Plot); for Km: read-out: Km for metabolism by CYP77A4
T1 sequence (Q9LZ31 1-512): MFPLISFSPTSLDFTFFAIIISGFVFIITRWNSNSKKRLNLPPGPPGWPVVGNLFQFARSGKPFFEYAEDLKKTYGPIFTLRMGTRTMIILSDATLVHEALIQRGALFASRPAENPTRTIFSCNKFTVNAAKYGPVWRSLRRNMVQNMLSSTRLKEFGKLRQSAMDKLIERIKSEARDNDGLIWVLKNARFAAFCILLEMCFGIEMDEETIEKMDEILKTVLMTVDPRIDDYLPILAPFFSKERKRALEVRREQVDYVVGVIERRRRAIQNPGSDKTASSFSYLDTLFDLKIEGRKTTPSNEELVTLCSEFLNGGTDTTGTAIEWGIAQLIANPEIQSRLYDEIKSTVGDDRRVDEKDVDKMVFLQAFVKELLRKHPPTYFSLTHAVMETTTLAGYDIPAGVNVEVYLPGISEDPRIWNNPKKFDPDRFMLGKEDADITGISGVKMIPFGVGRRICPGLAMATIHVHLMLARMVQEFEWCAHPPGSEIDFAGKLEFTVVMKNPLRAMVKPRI

[2] = target: T1, CYP77A4; settings: for conversion as substrate of CYP77A4 (in words) / amount of conversion of fatty acid: 100 μM fatty acid, 10 pmole CYP77A4, 27° C., 15 minutes (FIG. 4); for epoxide product formed by CYP77A4 (GC-MS identification): 100 μM substrate, 15-20 min
[3] = test system: CYP77A4 expression; settings: in vivo
[4] = test system: CYP77A4 expression; assay: Induction of CYP77A4 expression by external factors, quantitative PCR on entire plantlets; settings: after 5 hours; ethanol as control; qPCR (FIG. 3)
[5] = 27° C., 10 pmole CYP77A4, NADPH
[6] = GC-MS analysis of metabolite fraction
[7] = 100 μM, 15 minutes, 27° C., 10 pmole CYP77A4, NADPH

SMILES | Vmax for metabolism by CYP77A4 [1] [nmol·min^−1·nmol^−1 P450] | conversion as substrate of CYP77A4 (in words) [2] | epoxide product formed by CYP77A4 (GC-MS identification) [2, 5] | Km [1] [µM] | amount of conversion of fatty acid [2] | further results
CCCCCCCC/C=C\CCCCCCCC(=O)O [oleic acid] | 26±5 | increasing order of conversion | epoxy form (at position 9, 10) of oleic acid | – | – | –
CCCCC/C=C\C/C=C\CCCCCCCC(=O)O [linoleic acid] | 13±0.3 | increasing order of conversion | 12-13 epoxy form of linolenic acid | 61 ± 3 | – | –
OC[C@@H](O)[C@@H](O)[C@H](O)[C@H](O)CO [mannitol] | – | – | – | – | – | induction of the expression of CYP77A4 [3]: ~20 fold; induction of the transcription of CYP77A4 [3]: 18 fold
CCCCCCCCCCCC(=O)O [C12:0, lauric acid] | – | optimal substrate | – | – | about 35% | share of omega-1 hydroxylated metabolite [2, 6]: 53%; share of omega-2 hydroxylated metabolite [2, 6]: 15.2%; share of omega-3 hydroxylated metabolite [2, 6]: 7.6%; share of omega-4 hydroxylated metabolite [2, 6]: 18.2%; share of omega-5 hydroxylated metabolite [2, 6]: 6%
CCC1(c2ccccc2)C(=O)NC(=O)NC1=O [phenobarbital] | – | – | – | – | – | induction of the expression of CYP77A4 [4]: 12 fold
CC/C=C\C/C=C\C/C=C\CCCCCCCC(=O)O [linolenic acid] | – | increasing order of conversion | – | 29 ± 4 | about 20% | share of 12-13 mono-epoxy form among mono-epoxy products [2, 7]: 87%; share of each of the other two mono-epoxy structures [2, 7]: 6.5%
